Assay results published in patent US8431577B2, “Crystalline form of eszopiclone, composition, preparation and uses thereof” (Tianjin Tasly Group Co., Ltd., priority 2008, dated 2013).
Read-outs that look alike come from different tables or passages of the source.

Tests used:
Male Long-Evans rats [1] = assay: Test of spontaneous activity; assay type: in vivo, rat; conditions: 10 mg/Kg body weight
Procedure: (§1) Male Long-Evans rats (weighing 250˜275 g) were adopted, divided into 3 groups, and fed in a 12-hour light-dark cycle. After one week of feeding, the experiment was carried out.
Horizontal activity of rats had been observed under an open circumstance to measure a total spontaneous activity. Respectively, all animals were placed into 8 black light-proof rooms, and their spontaneous activities were monitored by an infrared sensor mounted on the wall at equal intervals to record once every 10 minutes for 120 minutes.
The crystalline form of S-zopiclone was administrated to the animals at a dose of 10 mg/Kg body weight. 30˜60 minutes after administration, the inhibitory effect on the locomotor ability reached a peak, and disappeared after 2 hours.

Male Long-Evans rats [2] = assay: Maze test; assay type: in vivo, rat
Procedure: as §1

[3] = Solubility test (Chinese Pharmacopoeia 2000 general notice); assay type: physicochemical; conditions: 25±2° C.
Procedure: Solubility test had been carried out by common solvents in accordance with the method of the GENERAL NOTICE in Chinese Pharmacopoeia (2000 Edition).
Test method: an appropriate amount of fine powder of the crystalline form of S-zopiclone was weighed accurately, into which a certain amount of solvent was added with an accuracy of ±2%. At a temperature of 25±2° C., the solution was shaken violently for 30 seconds, which is repeated at 5-minute intervals. The solubility behavior within 30 minutes had been observed.

[4] = for Content (%) / Related substances (%) Levozopiclone / Related substances (%) Other impurities: Strong light exposure (4500±500 Lx)
Source text: The specimens were sampled on the 5th and 10th day respectively to measure their stability in accordance with the key stability-relevant items.

[5] = Long-term reserved-sample stability test; assay type: physicochemical; conditions: room temperature
Source text: The crystalline form of S-zopiclone was packaged in packages simulated the commercial ones, and placed at room temperature. The specimens were sampled on the 3rd, 6th, 9th, 12th, 18th, 24th, and 36th month respectively to measure their stability in accordance with the key stability-relevant items.

CN1CCN(C(=O)O[C@H]2c3nccnc3C(=O)N2c2ccc(Cl)cn2)CC1 [crystalline form of S-zopiclone, (+)-(S)-(4-methylpiperazine-1-carboxylate)(6-(5-chloropyridinyl-2-yl)-7-carbonyl-6,7-dihydro-5-H-pyrrolo[3,4-b]pyrazin-5-yl ester)]
time after which inhibitory effect on the locomotor ability disappeared (Male Long-Evans rats [1]): 2 h | residence time in the open arm (Male Long-Evans rats [2]; 5 mg/Kg body weight): significantly increase | effect on total entries, open arm entries and close arm entries (Male Long-Evans rats [2]; 10 mg/Kg body weight): significant effect | residence time in the open arm (Male Long-Evans rats [2]; 10 mg/Kg body weight): significantly increase | Required amount of the solvent ([3]; acetone, 10 mg sample): 2.0 mL | Required amount of the solvent for dissolving 1 g of the sample ([3]; acetone): 200 mL | Solubility ([3]; acetone): slightly soluble | Required amount of the solvent ([3]; anhydrous ether, 10 mg sample): 90.0 mL | Required amount of the solvent for dissolving 1 g of the sample ([3]; anhydrous ether): 9000 mL | Solubility ([3]; anhydrous ether): very slightly soluble | Required amount of the solvent ([3]; chloroform, 100 mg sample): 0.6 mL | Required amount of the solvent for dissolving 1 g of the sample ([3]; chloroform): 6 mL | Solubility ([3]; chloroform): freely soluble | Required amount of the solvent ([3]; ethanol, 10 mg sample): 15.0 mL | Required amount of the solvent for dissolving 1 g of the sample ([3]; ethanol): 1500 mL | Solubility ([3]; ethanol): very slightly soluble | Required amount of the solvent ([3]; ethyl acetate, 10 mg sample): 6.0 mL | Required amount of the solvent for dissolving 1 g of the sample ([3]; ethyl acetate): 600 mL | Solubility ([3]; ethyl acetate): slightly soluble | Required amount of the solvent ([3]; hydrochloric acid (0.1 mol/L), 10 mg sample): 0.7 mL | Required amount of the solvent for dissolving 1 g of the sample ([3]; hydrochloric acid (0.1 mol/L)): 70 mL | Solubility ([3]; hydrochloric acid (0.1 mol/L)): Soluble | Required amount of the solvent ([3]; methanol, 10 mg sample): 5.0 mL | Required amount of the solvent for dissolving 1 g of the sample ([3]; methanol): 500 mL | Solubility ([3]; methanol): slightly soluble | Required amount of the solvent ([3]; water, 10 mg sample): 200 mL | Required amount of the solvent for dissolving 1 g of the sample ([3]; water): 20000 mL | Solubility ([3]; water): practically insoluble | stability (character, melting point, related substances versus 0th day) ([4]; 10 days of strong light exposure (4500±500 Lx)): remained stable | Content (%) ([4]; day 0): 100.06% | Related substances (%) Levozopiclone ([4]; day 0): 0.06% | Related substances (%) Other impurities ([4]; day 0): 0.09% | Content (%) ([4]; day 5): 99.77% | Related substances (%) Levozopiclone ([4]; day 5): 0.08% | Related substances (%) Other impurities ([4]; day 5): 0.10% | Content (%) ([4]; day 10): 100.02% | Related substances (%) Levozopiclone ([4]; day 10): 0.07% | Related substances (%) Other impurities ([4]; day 10): 0.11% | stability (character, melting point, related substances versus 0th day) ([5]; long-term reserved-sample test, up to 36 months): remained stable | Content (%) ([5]; month 0): 100.06% | Related substances (%) Levozopiclone ([5]; month 0): 0.06% | Related substances (%) Other impurities ([5]; month 0): 0.09% | Content (%) ([5]; month 3): 100.3% | Related substances (%) Levozopiclone ([5]; month 3): 0.06% | Related substances (%) Other impurities ([5]; month 3): 0.11% | Content (%) ([5]; month 6): 100.21% | Related substances (%) Levozopiclone ([5]; month 6): 0.06% | Related substances (%) Other impurities ([5]; month 6): 0.14% | Content (%) ([5]; month 9): 100.16% | Related substances (%) Levozopiclone ([5]; month 9): 0.04% | Related substances (%) Other impurities ([5]; month 9): 0.14% | Content (%) ([5]; month 12): 100.08% | Related substances (%) Levozopiclone ([5]; month 12): 0.06% | Related substances (%) Other impurities ([5]; month 12): 0.14% | Content (%) ([5]; month 18): 100.12% | Related substances (%) Levozopiclone ([5]; month 18): 0.07% | Related substances (%) Other impurities ([5]; month 18): 0.17% | Content (%) ([5]; month 24): 99.80% | Related substances (%) Levozopiclone ([5]; month 24): 0.07% | Related substances (%) Other impurities ([5]; month 24): 0.18% | Content (%) ([5]; month 36): 100.06% | Related substances (%) Levozopiclone ([5]; month 36): 0.07% | Related substances (%) Other impurities ([5]; month 36): 0.20%
